Measured values reported in patent US20230078120A1 (priority 2020, published 2023).
Several values for one entry are separate records, joined by “and”; a condition that tells them apart may be missing. Equal entries are not always repeated. Where two headings read alike, the source gives them in different places.

What was measured:
virus-infected cells = conditions: cited from earlier work
[1] = system: influenza A virus (IAV) infected cells; conditions: caspase-mediate apoptosis pathway; cited from earlier work
HBV [2] = test: HBV replication in HepG2.2.15 liver cancer cell line; type: cell-based
Source text: (§1) Similar to the above mentioned IAP inhibitors, Compound 2 of the present invention is a potent IAP inhibitor and can promote apoptosis, and thus could be a potential antiviral compound for coronavirus infection treatment. FIGS. 1A-1C show the effect of Compound 2 on apoptotic induction, IAPs expression, and HBV replication and gene expression in HepG2.2.15 liver cancer cell line.

HBV [3] = conditions: mouse model of chronic HBV infection; cited from earlier work
SARS-CoV-2 = test: microbe, parasite or virus in culture; type: cell-based; conditions: for IC50: Severe acute respiratory syndrome coronavirus 2, Vero; for Max Inhibition (%): Vero cells, MOI 0.0125, 24 hpi, at the Max Conc. of each compound (5, 50 or 150 uM)
in vitro = conditions: African green monkey
ABL1-nonphosphorylated = ABL1-nonphosphorylated (Homo sapiens, UniProt P00519); test: Compound 1 kinase inhibition activity (% Ctrl), ABL1-nonphosphorylated; type: biochemical
ABL1-phosphorylated = ABL1-phosphorylated (Homo sapiens, UniProt P00519); test: Compound 1 kinase inhibition activity (% Ctrl), ABL1-phosphorylated; type: biochemical
ABL2 = ABL2 (Homo sapiens, UniProt P42684); test: Compound 1 kinase inhibition activity (% Ctrl), ABL2; type: biochemical
[4] = system: cytokines associated with influenza virus induced cytokine storm; test: Inhibition of cytokines associated with influenza virus induced cytokine storm, U937 cells, Luminex assay; type: cell-based; conditions: U937 cells infected with influenza virus, MOI 0.1, 24 hours treatment
Experimental: Following the method described in Front Immunol. 2019 Jun. 21; 1393 and Am. J. Physiol., Lung Cell Mol. Physiol. 315: L52-L58, 2018, U937 cells were infected with influenza virus at a MOI of 0.1 and treated with indicated concentrations of Compound 1 and Compound 2. The supernatant of cells was harvested after 24 hours treatment and the production of indicated cytokines were determined using Luminex assay. The method and results are shown below in FIG. 7 and FIGS. 8A-8C. Survival of influenza virus (IFV) infected mice are shown Table 4 and in FIGS. 9A-9B.

influenza virus = type: in vivo, mice
RIPK1 = target: T1, RIPK1 (Homo sapiens, UniProt Q13546); test: RIPK1 kinase assay (Promega RIPK1 Kinase Enzyme System kit); type: biochemical; conditions: cell free assay
T1 sequence (Q13546 1-327 limits assumed): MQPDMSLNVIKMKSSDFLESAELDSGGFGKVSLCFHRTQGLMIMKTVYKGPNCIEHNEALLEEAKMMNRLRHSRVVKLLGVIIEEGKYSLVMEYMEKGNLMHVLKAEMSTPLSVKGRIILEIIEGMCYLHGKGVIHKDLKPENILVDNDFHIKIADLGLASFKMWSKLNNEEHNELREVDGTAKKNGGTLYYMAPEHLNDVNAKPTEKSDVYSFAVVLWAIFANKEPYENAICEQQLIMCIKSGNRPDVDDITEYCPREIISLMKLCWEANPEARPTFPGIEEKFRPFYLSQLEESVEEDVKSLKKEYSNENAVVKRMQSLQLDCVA

[5] = system: BCR-ABL1 expressing Ba/F3; conditions: read-out: IC50 Cellular Activity (BCR-ABL1 expressing Ba/F3)
BCR-ABL1 kinase = BCR-ABL1 kinase (Homo sapiens, UniProt P00519); test: biochemical
IAPs = IAPs expression in HepG2.2.15 liver cancer cell line; type: cell-based
Source text: as §1

[6] = system: HepG2.2.15 liver cancer cell line; test: Apoptotic induction in HepG2.2.15 liver cancer cell line; type: cell-based; conditions: combination with TNF-α
Source text: as §1

HBV [7] = test: Virus clearance in pAAV-HBV 1.3 model; type: in vivo; conditions: injection, C57BL/6J mice
HBV [8] = test: HBV models in mice: hepatocyte apoptosis and liver immune readouts; type: in vivo
Vero E6 cells = conditions: cited from earlier work
SARS-CoV [9] = conditions: Vero E6 cells; cited from earlier work
MERS-CoV [10] = conditions: Vero E6 cells; cited from earlier work
SARS-CoV [11] = conditions: Vero E6 and Calu-3 cells; cited from earlier work
MERS-CoV [12] = conditions: Vero E6 and MRC5 cells; cited from earlier work
IL-8, IP-10, MCP-1 = conditions: cytokines associated with influenza-induced cytokine storm; cited from earlier work

ABL1-nonphosphorylated, sequence (P00519 whole entry): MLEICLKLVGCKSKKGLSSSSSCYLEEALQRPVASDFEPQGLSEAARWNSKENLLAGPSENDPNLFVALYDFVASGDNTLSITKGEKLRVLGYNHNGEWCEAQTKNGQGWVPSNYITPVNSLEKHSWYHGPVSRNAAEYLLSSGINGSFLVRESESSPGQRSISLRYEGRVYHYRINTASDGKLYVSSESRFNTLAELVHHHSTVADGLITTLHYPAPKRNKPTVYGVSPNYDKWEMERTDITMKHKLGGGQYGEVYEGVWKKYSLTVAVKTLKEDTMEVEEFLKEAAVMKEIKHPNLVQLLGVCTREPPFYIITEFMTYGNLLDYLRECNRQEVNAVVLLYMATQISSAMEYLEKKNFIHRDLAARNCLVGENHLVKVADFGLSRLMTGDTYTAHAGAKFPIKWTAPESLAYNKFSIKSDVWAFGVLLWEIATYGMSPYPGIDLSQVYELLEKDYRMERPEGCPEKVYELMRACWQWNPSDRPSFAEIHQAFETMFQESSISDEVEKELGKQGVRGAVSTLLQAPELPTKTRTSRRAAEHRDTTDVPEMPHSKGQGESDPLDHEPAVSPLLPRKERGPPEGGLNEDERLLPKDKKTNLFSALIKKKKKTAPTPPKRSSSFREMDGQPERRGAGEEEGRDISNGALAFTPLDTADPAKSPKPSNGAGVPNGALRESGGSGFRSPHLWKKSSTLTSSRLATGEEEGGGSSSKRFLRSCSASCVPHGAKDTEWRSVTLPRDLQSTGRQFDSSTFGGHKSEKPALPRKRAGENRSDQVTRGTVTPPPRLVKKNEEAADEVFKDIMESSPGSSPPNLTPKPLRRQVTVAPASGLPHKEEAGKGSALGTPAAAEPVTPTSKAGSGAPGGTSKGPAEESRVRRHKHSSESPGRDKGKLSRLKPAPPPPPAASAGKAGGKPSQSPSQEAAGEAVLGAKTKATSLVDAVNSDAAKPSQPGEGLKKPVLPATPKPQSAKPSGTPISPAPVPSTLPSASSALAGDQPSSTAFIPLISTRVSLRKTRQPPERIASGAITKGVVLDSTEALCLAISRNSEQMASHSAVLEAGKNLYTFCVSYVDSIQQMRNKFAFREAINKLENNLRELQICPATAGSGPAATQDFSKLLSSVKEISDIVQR
ABL1-phosphorylated, sequence (P00519 whole entry): as above
ABL2, sequence (P42684 whole entry, species assumed): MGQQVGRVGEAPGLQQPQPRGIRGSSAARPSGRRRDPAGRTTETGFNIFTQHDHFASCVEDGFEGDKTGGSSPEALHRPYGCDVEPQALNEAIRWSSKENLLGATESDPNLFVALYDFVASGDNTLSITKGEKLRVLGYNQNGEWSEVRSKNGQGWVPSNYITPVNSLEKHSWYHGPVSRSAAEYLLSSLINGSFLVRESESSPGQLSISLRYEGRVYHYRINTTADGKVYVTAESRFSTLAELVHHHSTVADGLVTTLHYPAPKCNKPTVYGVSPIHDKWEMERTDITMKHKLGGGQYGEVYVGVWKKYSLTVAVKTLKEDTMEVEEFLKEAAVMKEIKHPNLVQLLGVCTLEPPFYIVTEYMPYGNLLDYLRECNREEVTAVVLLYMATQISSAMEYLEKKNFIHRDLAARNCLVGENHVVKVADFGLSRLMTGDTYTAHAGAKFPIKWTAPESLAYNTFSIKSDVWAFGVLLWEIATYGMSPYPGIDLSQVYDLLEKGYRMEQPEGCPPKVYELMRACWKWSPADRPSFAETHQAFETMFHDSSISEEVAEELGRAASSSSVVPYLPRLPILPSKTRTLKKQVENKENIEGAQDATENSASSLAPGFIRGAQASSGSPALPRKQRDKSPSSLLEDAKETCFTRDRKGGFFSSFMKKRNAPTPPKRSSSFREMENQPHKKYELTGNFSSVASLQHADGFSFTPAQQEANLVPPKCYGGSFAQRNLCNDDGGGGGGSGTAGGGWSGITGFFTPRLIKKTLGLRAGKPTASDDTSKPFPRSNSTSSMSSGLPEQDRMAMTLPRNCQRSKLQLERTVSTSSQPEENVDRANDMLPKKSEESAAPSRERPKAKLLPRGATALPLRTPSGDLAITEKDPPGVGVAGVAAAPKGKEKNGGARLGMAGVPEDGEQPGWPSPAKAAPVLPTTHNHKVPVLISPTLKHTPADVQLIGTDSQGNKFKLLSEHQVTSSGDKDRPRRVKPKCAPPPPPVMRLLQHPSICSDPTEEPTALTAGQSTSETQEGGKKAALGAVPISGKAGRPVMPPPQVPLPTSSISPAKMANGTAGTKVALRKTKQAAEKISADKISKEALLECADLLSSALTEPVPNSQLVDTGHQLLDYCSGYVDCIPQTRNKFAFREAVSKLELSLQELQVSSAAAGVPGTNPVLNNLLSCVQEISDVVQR
BCR-ABL1 kinase, sequence (P00519 27-1130): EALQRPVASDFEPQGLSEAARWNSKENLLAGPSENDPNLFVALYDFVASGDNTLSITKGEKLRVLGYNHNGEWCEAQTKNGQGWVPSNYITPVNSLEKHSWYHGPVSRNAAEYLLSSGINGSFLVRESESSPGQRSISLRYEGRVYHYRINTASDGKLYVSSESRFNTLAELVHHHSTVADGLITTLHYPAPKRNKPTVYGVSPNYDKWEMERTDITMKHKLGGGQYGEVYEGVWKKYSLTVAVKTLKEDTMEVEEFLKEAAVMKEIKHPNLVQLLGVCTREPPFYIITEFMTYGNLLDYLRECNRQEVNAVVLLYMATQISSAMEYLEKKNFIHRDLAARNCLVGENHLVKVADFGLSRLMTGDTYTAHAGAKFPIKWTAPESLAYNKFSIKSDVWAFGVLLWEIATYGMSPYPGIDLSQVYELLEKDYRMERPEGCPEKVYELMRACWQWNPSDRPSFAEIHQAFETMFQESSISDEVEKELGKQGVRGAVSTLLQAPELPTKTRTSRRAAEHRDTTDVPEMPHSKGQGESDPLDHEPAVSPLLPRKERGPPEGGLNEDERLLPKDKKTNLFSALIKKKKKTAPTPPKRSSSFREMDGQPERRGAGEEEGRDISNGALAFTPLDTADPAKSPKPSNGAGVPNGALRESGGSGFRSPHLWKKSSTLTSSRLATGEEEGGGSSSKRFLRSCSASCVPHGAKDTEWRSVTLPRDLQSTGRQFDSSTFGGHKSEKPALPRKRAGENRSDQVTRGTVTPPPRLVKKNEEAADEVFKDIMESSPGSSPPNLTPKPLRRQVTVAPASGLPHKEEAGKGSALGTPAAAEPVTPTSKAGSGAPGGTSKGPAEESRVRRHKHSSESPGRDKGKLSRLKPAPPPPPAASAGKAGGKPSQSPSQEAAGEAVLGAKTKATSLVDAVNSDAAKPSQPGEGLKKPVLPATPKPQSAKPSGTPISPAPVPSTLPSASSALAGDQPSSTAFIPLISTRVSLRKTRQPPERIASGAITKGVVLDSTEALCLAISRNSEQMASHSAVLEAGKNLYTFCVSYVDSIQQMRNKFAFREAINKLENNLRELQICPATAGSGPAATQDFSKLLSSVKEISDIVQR

For CC1(C)CCC(c2ccc(Cl)cc2)=C(CN2CCN(c3ccc(C(=O)NS(=O)(=O)c4ccc(N[C@H](CCN5CCOCC5)CSc5ccccc5)c(S(=O)(=O)C(F)(F)F)c4)cc3)CC2)C1 [ABT-236], the “apoptosis in virus-infected cells” value (virus-infected cells) is listed as “accelerate apoptosis in virus-infected cells”.
In the case of CC1(C)CCC(c2ccc(Cl)cc2)=C(CN2CCN(c3ccc(C(=O)NS(=O)(=O)c4ccc(N[C@H](CCN5CCOCC5)CSc5ccccc5)c(S(=O)(=O)C(F)(F)F)c4)cc3)CC2)C1 [ABT-263], the “apoptosis in virus-infected cells” value [1] is listed as “accelerates apoptosis in virus-infected cells”.
For CN(C)CC[C@H](CSc1ccccc1)Nc1ccc(S(=O)(=O)NC(=O)c2ccc(N3CCN(Cc4ccccc4-c4ccc(Cl)cc4)CC3)cc2)cc1[N+](=O)[O-] [ABT-737], the “apoptosis in virus-infected cells” value (virus-infected cells) is given as “accelerate apoptosis in virus-infected cells”.
In the case of CC[C@H](NC(=O)[C@H](C)NC)C(=O)N1C[C@@H](O)C[C@H]1Cc1c(-c2[nH]c3cc(F)ccc3c2C[C@@H]2C[C@H](O)CN2C(=O)[C@H](CC)NC(=O)[C@H](C)NC)[nH]c2cc(F)ccc12 [Birinapant], the virus replication (HBV [2]; high concentrations) is given as “impair enhancement of virus replication”, the virus replication (HBV [2]; low concentrations) is given as “increased virus replication” and the “elimination of hepatocytes containing HBV core antigen” value (HBV [3]) is given as “promote the elimination”. The “serum HBV DNA” value (HBV [3]) was “rapidly reduce” and the “serum HBV surface antigen” value (HBV [3]) was “rapidly reduce”.
For CCN(CC)CCCC(C)Nc1ccnc2cc(Cl)ccc12 (stereo not drawn) [Chloroquine], the IC50 (SARS-CoV-2) was 13 µM, the “Max Inhibition (%)” value (SARS-CoV-2) was 100.01% and the CC50 (in vitro) was over 150 µM.
For Cc1ccc(C(=O)Nc2ccc(CN3CCN(C)CC3)c(C(F)(F)F)c2)cc1C#Cc1cnc2[nH]ncc2c1 [Compound 1, 3-(2-(1H-pyrazolo[3,4-b]pyridin-5-yl)ethynyl)-4-methyl-N-(4-((4-methylpiperazin-1-yl)methyl)-3-(trifluoromethyl)phenyl)-benzamide], the remaining activity at 0.01 µM (ABL1-nonphosphorylated; read-out: % Ctrl @ 10 nM) was 4.4%, the remaining activity at 0.1 µM (ABL1-nonphosphorylated; read-out: % Ctrl @ 100 nM) was 0.1% and the remaining activity at 1 µM (ABL1-nonphosphorylated; read-out: % Ctrl @ 1000 nM) was 0%. The remaining activity at 0.01 µM (ABL1-phosphorylated; read-out: % Ctrl @ 10 nM) was 3%, the remaining activity at 0.1 µM (ABL1-phosphorylated; read-out: % Ctrl @ 100 nM) was 0% and the remaining activity at 1 µM (ABL1-phosphorylated; read-out: % Ctrl @ 1000 nM) was 0%. The remaining activity at 0.01 µM (ABL2; 10 nM) was 2.6%, the remaining activity at 0.1 µM (ABL2; 100 nM) was 0% and the remaining activity at 1 µM (ABL2; 1000 nM) was 0%. For the same molecule, the IC50 (SARS-CoV-2) was 1.32 µM, the “SARS-CoV-2 infection in Vero cell” value (SARS-CoV-2; result in words) was “inhibits SARS-CoV-2 infection in Vero cell” and the “production of cytokines associated with influenza induced cytokine storm” value [4] was “inhibits the production of cytokines associated with influenza induced cytokine storm”. The “survival of influenza virus infected mice” value (influenza virus; at the amounts of 5 mg/kg or 10 mg/kg) was “improves the survival of influenza virus infected mice”, the “Day 21 Survival number” value (influenza virus; mouse, in vivo) was 1 and 2 and the “Survival rate (%)” value (influenza virus; mouse, in vivo) was 11.11% and 22.22%. The IC50 (RIPK1) was 54 nM, the IC50 [5] was 6 ± 3 nM and the CC50 (in vitro) was over 5 µM. The IC50 (BCR-ABL1 kinase) was 0.3 ± 0.0045 nM.
For CN[C@@H](C)C(=O)N[C@H]1CN(S(=O)(=O)c2cccc(S(=O)(=O)N3CC[C@H]4CC[C@@H](C(=O)NC(c5ccccc5)c5ccccc5)N4C(=O)[C@@H](NC(=O)[C@H](C)NC)C3)c2)CC[C@H]2CC[C@@H](C(=O)NC(c3ccccc3)c3ccccc3)N2C1=O [Compound 2, (5S,5′S,8S,8′S,10aR,10a′R)-3,3′-(1,3-phenylenedisulfonyl)bis(N-benzhydryl-5-((S)-2-(methylamino)propanamido)-6-oxodecahydropyrrolo[1,2-a][1,5]diazocine-8-carboxamide)], the IC50 (SARS-CoV-2) was over 50 µM, the “Max Inhibition (%)” value (SARS-CoV-2) was 25.93% and the “production of cytokines associated with influenza induced cytokine storm” value [4] was “inhibits the production of cytokines associated with influenza induced cytokine storm”. For the same molecule, the “expression of IAPs” value (IAPs) was “inhibits the expression of IAPs in a dose-dependent manner”, the apoptosis pathway activation [6] was “significantly activate apoptosis pathway” and the virus replication (HBV [2]; high concentrations) was “impair enhancement of virus replication”. For the same molecule, the virus replication (HBV [2]; low concentrations) was “increased virus replication”, the virus clearance (HBV [7]) was “promotes virus clearance” and the “apoptosis in the HBV-infected (HBsAg+) hepatocytes” value (HBV [8]; HBV models in mice) was “specifically induced apoptosis”. The “expression of IFN-γ and TNF-α” value (HBV [8]; liver tissue of HBV models) was “promotes the expression of IFN-γ and TNF-α”, the “number of CD4+ and CD8+ T cells” value (HBV [8]; liver tissue of HBV models) was “promotes” and the CC50 (in vitro) was over 50 µM.
In the case of Cc1nc(Nc2ncc(C(=O)Nc3c(C)cccc3Cl)s2)cc(N2CCN(CCO)CC2)n1 [Dasatinib], the cytotoxicity (Vero E6 cells) is listed as “low cytotoxicity”.
For Cc1ccc(NC(=O)c2ccc(CN3CCN(C)CC3)cc2)cc1Nc1nccc(-c2cccnc2)n1 [Imatinib], the “inhibition of SARS-CoV” value (SARS-CoV [9]) is listed as “inhibit”, the “inhibition of MERS-CoV” value (MERS-CoV [10]) is listed as “inhibit” and the cytotoxicity (Vero E6 cells) is listed as “low cytotoxicity”. For the same molecule, the “virus production of SARS-CoV” value (SARS-CoV [11]) was “showed inhibition” and the “virus production of MERS-CoV” value (MERS-CoV [12]) was “showed inhibition”.
With Cc1cccc(C)c1OCC(=O)N[C@@H](Cc1ccccc1)[C@@H](O)C[C@H](Cc1ccccc1)NC(=O)[C@H](C(C)C)N1CCCNC1=O [Lopinavir] the IC50 (SARS-CoV-2) was 17.3 µM, the “Max Inhibition (%)” value (SARS-CoV-2) was 99.93% and the CC50 (in vitro) was over 50 µM.
For Cc1cn(-c2cc(NC(=O)c3ccc(C)c(Nc4nccc(-c5cccnc5)n4)c3)cc(C(F)(F)F)c2)cn1 [Nilotinib, reference compound], the IC50 [5] is given as 10 ± 3 nM and the “production of IL-8, IP-10 and MCP-1” value (IL-8, IP-10, MCP-1) is given as “inhibit the production”.
With CCOC(=O)C1=C[C@@H](OC(CC)CC)[C@H](NC(C)=O)[C@@H](N)C1 [Oseltamivir] the “Survival rate (%)” value (influenza virus; 10 mpk, QD, 2 hr prior to infection, day 21) was 100% and the “Day 21 Survival number” value (influenza virus; 10 mpk, QD, 2 hr prior to infection, of 9 animals) was 9.
In the case of Cc1ccc(C(=O)Nc2ccc(CN3CCN(C)CC3)c(C(F)(F)F)c2)cc1C#Cc1cnc2cccnn12 [Ponatinib], the “Day 21 Survival number” value (influenza virus; mouse, in vivo) is reported as 2 and 1 and the “Survival rate (%)” value (influenza virus; mouse, in vivo) is reported as 22.22% and 11.11%.
With CCC(CC)COC(=O)[C@H](C)N[P@](=O)(OC[C@H]1O[C@@](C#N)(c2ccc3c(N)ncnn23)[C@H](O)[C@@H]1O)Oc1ccccc1 [Remdesivir] the IC50 (SARS-CoV-2) was 12.4 µM, the “Max Inhibition (%)” value (SARS-CoV-2) was 95.01% and the CC50 (in vitro) was over 50 µM.
